By pKa is commonly meant the negative logarithm of the acid dissociation constant. A high value points to a weaker acid or stronger base.

As for `CCNCC#CCNCC`, the pKa (basic group) worked out at 8.32.
With `C1CN(CC2CO2)CCO1` (centres undefined), the pKa (basic group) came out at 5.88.
Still for that read-out and setting: the value for `O=Cc1ccnc2ccccc12` was 4.25.
Still for that read-out and setting: the value for `CCc1cc(-c2ccccc2)nnc1NCCN1CCOCC1` was 7.08; that for `FC(F)(F)c1cc(-c2ccccc2)nnc1NCCN1CCOCC1` was 6.75.
For the setting “basic group”, `C[C@@H]1CC[C@H]2CC[C@H](C)N21` had a pKa of 11.5.
Still for that read-out and setting: the value for `CC(c1ccccc1)N1CC(O[Si](C)(C)C)C1` (centres undefined) was 7.82; that for `Cc1ccc([N+](=O)[O-])c2c(NCCC[NH+](C)C)cc(-c3ccccc3)nc12` was 5.43.
For `Oc1cccc2cncnc12`, the pKa amounted to 8.65 (acidic group) and 3.41 (basic group).
`CCCCCCCCCCCCCCCCN` displayed a pKa (basic group) of 10.6.
On the same count and under the same terms, the value for `CCCCc1ccc(C(=O)[O-])nc1` was 5.7.
As to `C/C(N=O)=N\O`, where the note is “acidic group”, the pKa came out at 5.8.
As to `CCCCCCCCCc1c(O)n[nH]c1-c1ccccc1`, the pKa (acidic group) is 10.6.
Still for that read-out and setting: under `O=C(O)C1=C(CO)CC1` stands 4.16.
`[NH3+]Cc1nc2ccccc2[nH]1` registered a pKa (basic group) of 3.28.
`COP(=O)([O-])NS(=O)(=O)c1ccccc1` yielded a pKa (acidic group) of 6.25.
Same read-out and setting: under `CCCCCCCc1c(-c2ccccc2)n[nH]c1O` stands 9.2; under `O=C(O)c1ccccc1/N=C/C=C/c1ccccc1`, 6.12; under `CCC(=O)c1cc(C(=O)c2ccccc2)n[nH]1`, 9.14.
Still for that read-out and setting: under `O=C(O)CS` stands 3.38.
`Nc1ccc(I)cc1` came in with a pKa (basic group) of 3.79.
`O=C([O-])CCCc1c[nH]cn1` showed a pKa (basic group) of 7.62.
On the same count and under the same terms, the value for `CNCCCNC(=O)/C=N/[O-]` was 10.6.
Regarding `CCO[C@H]1C[C@@H]1C(=O)O`, for the setting “acidic group”, the pKa amounted to 4.46.
Compound `C/C(N)=N/O` registered a pKa (basic group) of 5.9.
Compound `COc1ccc(C(=S)Nc2ccc(C)cc2)cc1` had a pKa (acidic group) of 11.8.
Same read-out and setting: the value for `CCn1nnnc1NC(C)=O` was 8.38; that for `CCN(CC)CC(=N\O)/C(C)=N/O` was 10.7; that for `NS(=O)(=O)c1ccc(F)cc1` was 9.34.
On the same count and under the same terms, the value for `OB(O)Cc1ccccc1` was 9.12; that for `CCCc1c(C)nn(-c2ccccc2)c1O` was 11.4.
Compound `CCN(N)CC` had a pKa (basic group) of 7.63.
Still for that read-out and setting: the value for `O=C([O-])c1ccc([N+](=O)[O-])c2cccnc12` was 4.67; that for `C=CCN(C)CCOC(=O)C(=C)C` was 7.39; that for `CN1CCC[C@H]1c1cccnc1` was 7.85.
Take `CCCCCCCCCCCCCCCCCc1c2ccccc2nc2ccccc12`: the pKa (basic group) was 5.5.
Still for that read-out and setting: the value for `CC(=O)N(N=C(C)C)C1CCN(C)CC1` was 8.6.
Take `NCc1nc2ccccc2[nH]1`: the pKa runs as follows: (acidic group) 12.8; (basic group) 8.02.
`CC(=O)Oc1cccc2cccnc12` displayed a pKa (basic group) of 3.3.
On the same count and under the same terms, under `CN1CCCCCN1C` stands 6.66.
In turn, `Cc1ccc(S(=O)(=O)NCC(=O)[O-])cc1` showed a pKa (acidic group) of 11.4.
Compound `C(CNCCc1nnn[n-]1)NCCc1nnn[n-]1` gave a pKa (basic group) of 9.33.
`Cc1cc(O)c(C(C)C)cc1Nc1ccc([O-])cc1` yielded a pKa (acidic group) of 10.8.
Still for that read-out and setting: the value for `O=C1C(O)=C(c2ccccc2)C(=O)c2ccccc21` was 4.35.
`Cc1cc([S-])nc([S-])n1` yielded a pKa (basic group) of 12.
In turn, `c1c(CN2CCNCCNCC2)n[nH]c1CN1CCNCCNCC1` came in with a pKa (basic group) of 11.2.
`Cc1cccc(O)c1C(=O)Oc1ccccc1` returned a pKa (acidic group) of 8.63.
For `CC(Br)(CN)[N+](=O)[O-]` (centres undefined), where the note is “basic group”, the pKa amounted to 6.15.
Still for that read-out and setting: under `NCc1cccnc1` stands 8.33.
Same read-out and setting: under `Cc1ccc(CON)cc1` stands 4.4.
Turning to `NC(=O)C1=CN2CCC1CC2`, the pKa (acidic group) is 7.32.
Where the note is “basic group”, `CCOC(=O)Cc1ccccn1` had a pKa of 4.25.
For the compound `CNc1cccc2ccccc12`, the pKa (basic group) worked out at 3.7.
In the case of `O=[N+]([O-])c1cccc(/C=C/C=N/O)c1`, for the setting “acidic group”, the pKa was found to be 10.2.
Same read-out and setting: the value for `COc1ccc(O)c(C[NH2+]C(CO)C(=O)O)c1` (centres undefined) was 2.1.
`[NH3+]CCCc1ccncc1` yielded a pKa (basic group) of 5.51.
For `Oc1ccc2ccnnc2c1`, the pKa is, setting by setting: (acidic group) 7.56; (basic group) 3.31.
The compound `N/C=N/O` yielded a pKa (basic group) of 5.05.
Same read-out and setting: the value for `CCCC1CCCN1C` (centres undefined) was 9.78.
For the setting “acidic group”, `Cc1ccc[n+](O)c1` returned a pKa of 1.08.
Turning to `CC1=NCCc2c1[nH]c1ccccc21`, the pKa stood at 14.9 (acidic group) and 8.99 (basic group).
In the case of `CC1/C(=N/O)C[C@@H]2N=C(c3ccccc3)O[C@@]13[C@@H]1OC(=O)[C@H](C)[C@H]1CC[C@]23C` (some centres undefined), for the setting “basic group”, the pKa stood at 4.7.
On to `NCCCCCCC#CC#CCCC(=O)[O-]`, for which the pKa (basic group) was found to be 10.7.
Still for that read-out and setting: under `C=CC(=O)NC(C)(C)CCN(CC)CC` stands 10.1; under `CC(N)CCc1ccccc1` (centres undefined), 9.78.
In turn, `COc1ccc([N+](=O)[O-])cc1C(=O)N[C@@H]1C[C@H]2CC[C@@H](C1)N2Cc1ccccc1` returned a pKa (basic group) of 8.7.
As to `CN(C)c1ccc(/N=N/c2ccccn2)cc1`, under “basic group”, the pKa was 4.5.
As to `Cc1cnc(N)s1`, the pKa (basic group) amounted to 5.71.
On the same count and under the same terms, the value for `CCCc1ccnc2c1ccc1cccnc12` was 5.45; that for `CNc1cnccc1N` was 9.14; that for `CN1[C@H]2CC=C(C(=O)[O-])[C@@H]1CC2` was 10.8.
`CC(C)=CCC1C(=O)C(CC=C(C)C)(CC=C(C)C)C(O)(C(=O)[O-])C1=O` (centres undefined): the pKa (acidic group) stood at 9.7.
Compound `C[NH+](C)CCCCCNc1c2ccccc2nc2cccc([N+](=O)[O-])c12` showed a pKa (basic group) of 7.4.
Consider `c1cc(-c2ccoc2)ccn1`, for which the pKa (basic group) came to 5.72.
`O=C(/C=N/O)c1ccccc1` showed a pKa (acidic group) of 8.31.
Compound `CCCNC(=O)[C@H](Cc1c[nH]cn1)NC(=O)c1cccc(CNCCN)n1` returned a pKa (basic group) of 9.3.
`Oc1ccc2cnccc2c1`: the pKa is 9.15 (acidic group) and 5.85 (basic group).
In turn, `O=C([O-])/C=C/C([O-])=C/C(=O)CC(=O)[O-]` yielded a pKa (acidic group) of 10.5.
Same read-out and setting: the value for `O=C(O)c1ccc(CCl)cc1` was 4.13; that for `OC(c1ccncc1)(c1ccncc1)c1ccncc1` was 11.8; that for `CCC(CC)C1(CC)C(=O)NC(=S)NC1=O` was 7.46.
As for `CN(C)CCSCCN(C)C`, where the note is “basic group”, the pKa was 9.1.
`C=C(CCCC)C(=O)O` yielded a pKa (acidic group) of 4.8.
The same measure, in the same setting: the value for `O=C1c2ccccc2C(=O)C1Cc1ccccc1` was 5.9; that for `CCc1ccc(O)c(C(C)C)c1` was 10.8.
For the compound `c1coc(CNCC[NH2+]Cc2ccco2)c1`, the pKa (basic group) was 5.74.
Same read-out and setting: the value for `COc1ccc2c(c1)C(O)N(C)C=C2` (centres undefined) was 2.15; that for `CCC(O)CN(C)CCO` (centres undefined) was 8.7.
Turning to `[O-]c1cc[nH+]cc1O`, the pKa (acidic group) was found to be 9.6.
In the case of `O=C1[C@H]2C[C@H](CN3CCCC=C23)[C@@H]2CCCCN12`, the pKa (basic group) was 9.7.
Same read-out and setting: under `CCOC(=O)c1cnc(N)s1` stands 3.04.
`O=C1NC(=O)C2CCC12` (centres undefined) yielded a pKa (acidic group) of 9.63.
With `O=P([O-])(O)C([NH2+]Cc1ccncc1)c1ccccc1O` (centres undefined), the pKa is 5.2 (acidic group) and 3.15 (basic group).
Regarding `Nc1nncc2ccccc12`, the pKa (basic group) was determined as 6.6.
For `Nc1ccc([NH3+])cc1`, the pKa (basic group) was determined as 2.86.
`[O-][n+]1c2ccccc2[n+](O)c2ccccc21` came in with a pKa (acidic group) of -1.62.
Take `CN(CC1CO1)CC1CO1` (centres undefined): for the setting “basic group”, the pKa is 6.45.
On to `OC(CN1CCCC1)C[NH+]1CCCC1`, for which, under “basic group”, the pKa turned out to be 7.75.
The same measure, in the same setting: the value for `CC(C)CCCN(C)CCCNC(=O)/C=N/[O-]` was 10.2; that for `C[C@H](N)C(=O)[O-]` was 9.72.
`CC[Se](=O)O` came in with a pKa (acidic group) of 5.28.
On to `Cc1nccn1C`, for which, where the note is “basic group”, the pKa is 7.64.
Regarding `Cc1cc(C#N)cc[n+]1O`, under “acidic group”, the pKa was -0.67.
On the same count and under the same terms, the value for `CCCC[NH2+]CC(=O)O` was 2.32.
`CCc1cccnc1`: the pKa (basic group) was 5.57.
For the compound `O=C(O)[C@H](O)c1ccccc1[N+](=O)[O-]`, under “acidic group”, the pKa was 3.15.
For the setting “basic group”, `CCOc1c(C#N)cnc2ccccc12` showed a pKa of 3.18.
Under “acidic group”, `COc1ccc(S)cc1` displayed a pKa of 6.76.
Still for that read-out and setting: the value for `Cc1cccc(C(O)C(C(=O)O)c2ccc(-c3ccccc3)cc2)c1` (centres undefined) was 4.17; that for `Cc1ccc(O)c(CO)c1` was 10.2; that for `CC(O)=C(C#N)C#N` was 1.
In the case of `Cc1cccc(/N=C/N(C)C)c1`, the pKa (basic group) is 9.11.
In the case of `CC(=O)n1ccnc1Cc1ncc[nH]1`, the pKa (basic group) was 6.6.
Where the note is “acidic group”, `O=C1C=C(S(=O)(=O)[O-])c2[nH]ncc2/C1=N/O` had a pKa of 7.75.
The same measure, in the same setting: the value for `Sc1cccc(Cl)c1` was 5.76.
For the setting “basic group”, `CCc1nc2cc3c(cc2[nH]1)CCCC3` registered a pKa of 6.64.
The same measure, in the same setting: the value for `CCOC(=O)C1CC2CCN1CC2` (centres undefined) was 8.8.
For the compound `CCOc1ccc(C(=O)O)cc1`, the pKa (acidic group) is 4.64.
On the same count and under the same terms, the value for `O=C1CCC([O-])=C1O` was 12.9; that for `CNC(=S)OC(C)C` was 11.6.
As for `c1cc(N2CCOCC2)ccn1`, the pKa (basic group) is 8.79.
The same measure, in the same setting: under `NCCSCC[NH3+]` stands 8.84; under `CN1C[C@H](CO)C[C@H]2c3cccc4[nH]cc(c34)C[C@@H]21`, 8.84.
Under “acidic group”, `CC[NH+](CC)CCCNC(=O)/C=N/O` showed a pKa of 8.75.
For the setting “basic group”, `O=[N+]([O-])c1ccc2[nH]c(C(F)(F)F)nc2c1` showed a pKa of 0.18.
Turning to `O=C(O)/C=C/SC1CCCCC1`, the pKa (acidic group) came out at 4.7.
On the same count and under the same terms, the value for `O=[N+]([O-])c1cc(O)ccc1O` was 7.42.
On to `c1nc(NC2CCCCC2)c2[nH]cnc2n1`, for which the pKa by setting is: (acidic group) 10.2; (basic group) 4.2.
In the case of `[S-]CCNCc1ccccc1`, the pKa (basic group) came to 10.3.
The compound `OC(CBr)(Oc1ccccc1)c1ccccc1` (centres undefined) returned a pKa (acidic group) of 11.2.
Still for that read-out and setting: the value for `Cc1ccc(C(=O)NO)cc1` was 8.9.
Compound `[NH3+]c1ccc(-c2ncc(-c3ccc(Cl)cc3)o2)cc1` yielded a pKa (basic group) of -0.1.
Still for that read-out and setting: under `Nc1nnnn1-c1cccc([N+](=O)[O-])c1` stands 0.47.
For the setting “acidic group”, `O=S(=O)(Nc1ccccc1)c1ccccc1` registered a pKa of 8.22.
As to `Cc1ccccc1/C(N)=N/O`, the pKa (basic group) is 4.03.
`O=C(O)c1ccc2cc3ccccc3cc2c1`: the pKa (acidic group) was determined as 4.18.
As for `Cn1cccc1-c1cccnc1`, the pKa (basic group) turned out to be 4.73.
